Test results from PubChem BioAssay (NCI).
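Where inhibition never reached the appropriate level, the endpoint shown equals the highest concentration tested. Otherwise, values were interpolated linearly from a five-concentration, 48-hour dose response in 96-well plates. Abbreviation: GI50, concentration required for 50% inhibition of growth. TGI: concentration producing complete growth inhibition.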 Where a SMILES comes first, the peptide text is derived from it. [ ]: non-standard residue; d: D form. The star is where a group is joined. X28 = COC1=CC(=O)N(C(=O)[C@@H](O*)C(C)C)[C@H]1Cc1ccccc1; NMeL = CN[C@@H](CC(C)C)C(=O)O; Hexanoyl = CCCCCC(=O)*

Legend:
Experiment in all cases: NCI-60 cell line screen, 48 h
[1] = test system: HOP-62 NSCLC
[2] = test system: TK-10 renal
[3] = test system: MCF7 breast
[4] = test system: DU-145 prostate
[5] = test system: NCI-H23 lung
[6] = test system: NCI-H460 lung
[7] = test system: HCC-2998 colon
[8] = test system: OVCAR-3 ovarian
[9] = test system: A498 renal
[10] = test system: OVCAR-8 ovarian

Row | SMILES | TGI [1] [µM] | TGI [2] [µM] | TGI [3] [µM] | TGI [4] [µM] | TGI [5] [µM] | TGI [6] [µM] | TGI [7] [µM] | TGI [8] [µM] | TGI [9] [µM] | TGI [10] [µM] | GI50 [1] [µM] | GI50 [2] [µM] | GI50 [3] [µM] | GI50 [4] [µM] | GI50 [5] [µM] | GI50 [6] [µM] | GI50 [7] [µM] | GI50 [8] [µM] | GI50 [9] [µM] | GI50 [10] [µM]
1 | CC(C)(C)c1cc(C2COC(=O)COCCOCC(=O)OCCOCCO2)cc(C(C)(C)C)c1O (stereo not given) | > 92.9 | 32.4 | > 100 | 37.1 | 99.1 | > 100 | 43 | > 100 | > 100 | > 100 |  |  |  |  |  |  |  |  |  | 
2 | N#Cc1ccc(Nc2nc3nc[nH]c3c(=O)[nH]2)cc1 | > 100 | > 100 | > 100 | > 100 | > 100 | > 100 | > 100 | > 100 | > 100 | > 100 |  |  |  |  |  |  |  |  |  | 
3 | N=C(/C=C/c1ccc(-c2cn3cc(/C=C/C(=N)N4CCOCC4)ccc3n2)cc1)N1CCOCC1 | > 100 | > 100 | > 100 | > 100 | > 100 | > 100 | > 100 | > 100 | > 100 | > 100 |  |  |  |  |  |  |  |  |  | 
4 | COc1ccc(OC)c2c1C[C@@H]1C(C#N)N3[C@H](Cc4c(OC)ccc(OC)c4[C@@H]3C)C(=O)N1[C@H]2C (stereo not given in full) | > 57.5 | 15.2 | 17.5 | > 54.7 | 19.6 | 48 | 14.4 | 5.2 | 42.1 | 9.93 |  |  |  |  |  |  |  |  |  | 
5 | OC1(c2ccc(Cl)cc2)c2ccccc2C2=Nc3ccccc3CN21 (stereo not given) | 30.8 | > 100 | > 87.7 | > 100 | > 100 | > 100 | > 100 | 9.77 | > 72.9 | 38.2 |  |  |  |  |  |  |  |  |  | 
6 | CCC1=C(C)C2=NC1=CC1=NC(=C(CC)/C1=C/O)C=C1N=C3C(=C1C)C(=O)C(C(=O)OC)C3=C1NC(=C2)C(C)C1CCC(=O)OC (stereo not given) | > 100 | > 100 | > 100 | > 100 | > 100 | > 100 | > 100 | > 100 | > 100 | > 100 |  |  |  |  |  |  |  |  |  | 
7 | CCCCCC(=O)N[C@H](C(=O)N[C@H](C(=O)N(C)[C@@H](CC(C)C)C(=O)N1CCC[C@H]1C(=O)N1CCC[C@H]1C(=O)O[C@H](C(=O)N1C(=O)C=C(OC)[C@@H]1Cc1ccccc1)C(C)C)C(C)C)C(C)C (Hexanoyl-VV[NMeL]PP-X28) | > 100 | > 100 | > 100 | > 100 | > 100 | > 100 | > 100 | > 100 | > 100 | > 100 |  |  |  |  |  |  |  |  |  | 
8 | COc1cc(-c2ccc(-c3ccc(C(=N)N)s3)s2)cc(OC)c1OC | 3.97 | 7.34 | 4.32 | 5.83 | 8.04 | 3.64 | 3.24 | 4.71 | 5.83 | 5.31 | 1.97 | 2.7 | 1.66 | 2.32 | 2.61 | 1.99 | 1.76 | 2.22 | 2.25 | 2.62
9 | O=C(/C=C1\N=C(c2ccccc2)N(c2ccc3c(c2)Sc2cc(N4C(=O)/C(=C/C(=O)/C=C/c5ccccc5)N=C4c4ccccc4)ccc2N3)C1=O)/C=C/c1ccccc1 | > 100 | > 100 | 56.1 | > 100 | > 100 | > 100 | > 100 | 43.6 | 67.8 | > 100 |  |  |  |  |  |  |  |  |  | 
10 | Cc1ccc(Nc2ncnc3sc(SCc4ccccc4)nc23)cc1 | > 100 | > 100 | > 100 | > 100 | > 100 | > 100 | > 100 | > 100 | > 100 | > 100 |  |  |  |  |  |  |  |  |  | 
11 | C(=N\NC1=NCCCN1)/c1ccc(-c2cn3cc(/C=N/NC4=NCCCN4)ccc3n2)cc1 | > 100 | > 100 | > 100 | > 100 | > 100 | > 100 | > 100 | > 100 | > 78.5 | > 89 |  |  |  |  |  |  |  |  |  | 
12 | CCOC(=O)c1c(OCC)[nH]c(=O)c(C(c2ccc(F)cc2)c2c(O)c(C(=O)OCC)c(OCC)[nH]c2=O)c1O | 36.1 | 67.7 | 60.7 | 24.3 | 43.6 | 36.5 | 39 | 39.7 | 26.2 | 28.1 |  |  |  |  |  |  |  |  |  | 
13 | O=[N+]([O-])c1ccccc1S(=O)(=O)N1CCCc2cc(Cl)ccc21 | > 100 | > 100 | > 80.3 | > 100 | > 100 | > 100 | > 100 | > 100 | 76.1 | > 100 |  |  |  |  |  |  |  |  |  | 
14 | COC(=O)c1ccc(/C=C/C2=CC(=O)C=CC2=O)cc1 | > 100 | 44.4 | 27.8 | > 100 | 42.4 | > 64.6 | 38.5 | 38.4 | 38.6 | 61.5 |  |  |  |  |  |  |  |  |  | 
15 | CCCCN(CCCC)CC(=O)c1ccc2cc(Cl)c3ccccc3c2c1 | > 100 | > 100 | 92.3 | > 100 | > 100 | 52.1 | 76.8 | > 100 | 46.9 | 51.8 |  |  |  |  |  |  |  |  |  | 
16 | COc1ccccc1NC(=S)N/N=C(/c1ccccc1)c1ccccn1 | 12.6 | 18.3 | 3.62 | 4.95 | 24.3 | 13.3 | 29.1 | 16.5 | 12.5 | 10.5 |  |  |  |  |  |  |  |  |  | 
17 | CC1CCN(c2nnc(Cl)cc2C(=O)c2ccccc2)CC1 | > 100 | > 100 | 36.9 | > 100 | 82.4 | > 100 | 96.6 | 71 | > 100 | > 100 |  |  |  |  |  |  |  |  |  | 
18 | Cc1nn(-c2ccccc2)c(C)c1/C=N/NC(=O)c1sc(=S)n(-c2ccc(Cl)cc2)c1N | > 100 | 14.4 | > 100 | > 100 | > 100 | 95.1 | 88.4 | > 100 | > 100 | > 100 |  |  |  |  |  |  |  |  |  | 
19 | C=C1C(=O)OC2C(C)C3C=CC(=O)[C@@]3(C)C(OC(=O)/C(C)=C/C)C1[C@@H]2OC(C)=O (stereo not given in full) | 2.86 | 1.57 | 1.37 | 3.23 | 1.29 | 1.33 | 3.2 | 0.744 | 2.81 | 0.628 |  |  |  |  |  |  |  |  |  | 
20 | CC1OC(OC2C(CO)OC(O[C@H]3CC[C@@]4(C)C(=CC[C@H]5[C@@H]6C[C@@H]7O[C@](O)(CC[C@@H](C)COC8OC(CO)C(O)C(O)C8O)[C@@H](C)[C@@H]7[C@@]6(C)CC[C@@H]54)C3)C(OC3OC(C)C(O)C(O)C3O)C2O)C(O)C(O)C1O (stereo not given in full) | 4.74 | 22.8 | 5.93 | 4.97 | 10.3 | 4.57 | 7.28 | 29.8 | > 100 | 4.09 |  |  |  |  |  |  |  |  |  | 
